Experiments:
H929 cell line = assay: Cell killing by trypan blue staining, cells seeded at 10^6 per ml; format: cell-based; conditions: H929, agent added D-0 (LMB38 100 ng/ml), washed after D-3
Procedure: (§1) The BCMA-positive H929, U266, and RPMI cell lines were seeded at 10^6 per ml in 3 ml volume. LMB38 (BM24-Fab-LRggs) was added at 100 ng/ml at Day 0 (D-0). Cells (10 μl) were taken on different days and counted after trypan blue staining. After D-3, cells were washed and plated with media containing no toxin. For the 6 hour group, cells were washed after 6 h and plated in regular media containing no toxin. Cyclohexamide (Chxm) and 205 were used as positive controls; SS1-Fab-immunotoxin targeting mesothelin was used as a negative control (Ctrl).

RPMI cell line = assay: as above; format: cell-based; conditions: agent added D-0 (LMB38 100 ng/ml)
Procedure: as §1

U266 cell line = assay: as above; format: cell-based; conditions: U266, agent added D-0 (LMB38 100 ng/ml), washed after D-3
Procedure: as §1

BCMA-rFc protein = biological target: T1, BCMA-rFc protein (Homo sapiens, UniProt Q02223); assay: Binding kinetics of MAbs by bio-layer interferometry (BLITZ); conditions: for ka / kd: BCMA-rFc immobilized sensor
T1 construct: the extracellular domain of human BCMA (residues 1-54) fused to the Fc region; made in house
T1 sequence (Q02223 1-54): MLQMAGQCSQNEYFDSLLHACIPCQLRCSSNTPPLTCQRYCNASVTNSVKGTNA
Procedure: The binding kinetics of MAbs to BCMA were measured by bio-layer interferometry using a BLITZ (ForteBio, Menlo Park, Calif.) instrument. According to the manufacturer's instructions, BCMA-rFc were immobilized on amine-reactive second-generation biosensors by amine coupling following the activation of the sensor surface with N-hydroxysuccinimide (NHS) and N-ethyl-N-(3-dimethylaminopropyl) carbodiimide hydrochloride (EDC). Serial dilutions of MAbs were run across sensor surface at five different concentration in PBS (pH 7.4). The sensorgram data set was globally fit using the built-in BLITZ software to determine association rate constant (Ka), dissociation rate constant (Kd), and affinity constant (KD).
The binding kinetics of these two anti-BCMA mAbs against BCMA-rFc protein were measured by bio-layer interferometry. Serial dilutions of anti-BCMA MAbs (20, 10, 5, 2.5, 1.25 μg/ml) were applied to the BCMA-rFc immobilized sensor and detected. Real-time biomolecular interaction analyses were performed with BLITZ software. […] The dissociation constants (KD) of both mAbs were less than 1×10^−12 (exceeded the detection limits).

[1] = biological target: T2, BCMA-expressing 293T cells (Homo sapiens, UniProt Q02223); assay: FACS screening of binding to cell-surface BCMA
T2 construct: One vector encoded the full-length human BCMA; expressed in transfected cells; host or cells: 293T cells transiently transfected with pcDNA6/BCMA
T2 sequence (Q02223 1-184): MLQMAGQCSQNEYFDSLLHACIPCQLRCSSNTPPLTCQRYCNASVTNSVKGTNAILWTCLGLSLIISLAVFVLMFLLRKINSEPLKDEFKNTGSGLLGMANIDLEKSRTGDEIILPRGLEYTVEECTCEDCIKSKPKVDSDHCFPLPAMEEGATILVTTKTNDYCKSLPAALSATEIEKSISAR
Procedure: For transfection experiments, 293T cells were seeded in 100 mm dishes (BD Biosciences, Bedford, Mass.) and grown at the subconfluent densities. pcDNA6/BCMA, pcDNA/TACI, or pcDNA6/BAFFR (6 μs) were transfected per dish by LIPOFECTAMINE LX and PLUS reagent according to the manufacturer's instructions. After 24 h, the transiently transfected cells were harvested and used for FACS screening. Cells (1-5×10^5) were incubated with serial dilution of hybridoma supernatants in FACS buffer (PBS containing 5% FBS and 0.1% sodium azide) for 1 h on ice. […] After washing twice, the cells were resuspended in 180 μl FACS buffer containing 10 nM TO-PRO-3 stain (Invitrogen), and the fluorescence associated with the live cells was measured using a BD ACCURI C6 flow cytometer (BD Biosciences). […] The isotype of established monoclonal antibodies (MAb) was determined by a mouse MAb isotyping reagents (Sigma-Aldrich). Immunoglobulin concentrations in the culture supernatants were determined by a sandwich ELISA.
Mice were intraperitoneally immunized with BCMA-rFc fusion protein in adjuvant for the first immunization, and subsequently immunized 5 times with BCMA-rFc without adjuvant. High antibody titers (1:10,000) against the BCMA-expressing 293T cells were detected in the sera from mice immunized with BCMA-rFc. […]

[2] = system: TNFRs (BCMA, TACI or BAFFR); assay: Cross-reactivity with TNFR superfamily members by FACS (transfected 293T cells) and ELISA (TNFR-rFc); format: binding, human; conditions: mAb at 4 μg/ml
Procedure: For transfection experiments, 293T cells were seeded in 100 mm dishes (BD Biosciences, Bedford, Mass.) and grown at the subconfluent densities. pcDNA6/BCMA, pcDNA/TACI, or pcDNA6/BAFFR (6 μs) were transfected per dish by LIPOFECTAMINE LX and PLUS reagent according to the manufacturer's instructions. After 24 h, the transiently transfected cells were harvested and used for FACS screening. Cells (1-5×10^5) were incubated with serial dilution of hybridoma supernatants in FACS buffer (PBS containing 5% FBS and 0.1% sodium azide) for 1 h on ice. After washing twice with FACS buffer, the cells were incubated with 1:200 dilution of R-Phycoerythrin (PE)-labelled goat anti-mouse IgG F(ab′)2 (Jackson Immuno Research Laboratories, West Grove, Pa.) for 30 min. After washing twice, the cells were resuspended in 180 μl FACS buffer containing 10 nM TO-PRO-3 stain (Invitrogen), and the fluorescence associated with the live cells was measured using a BD ACCURI C6 flow cytometer (BD Biosciences). Positive hybridoma clones were transferred to 24-well pates. To exclude the false positive in the first screening, 24-well culture supernatants were re-assayed 2 days after transfer. […] The isotype of established monoclonal antibodies (MAb) was determined by a mouse MAb isotyping reagents (Sigma-Aldrich). Immunoglobulin concentrations in the culture supernatants were determined by a sandwich ELISA. […]

BCMA = biological target: T3, BCMA (Homo sapiens, UniProt Q02223); assay: Affinity measurement of AF647-labeled and unlabeled LMB70; format: binding; conditions: after the first labeling
T3 sequence (Q02223 1-184): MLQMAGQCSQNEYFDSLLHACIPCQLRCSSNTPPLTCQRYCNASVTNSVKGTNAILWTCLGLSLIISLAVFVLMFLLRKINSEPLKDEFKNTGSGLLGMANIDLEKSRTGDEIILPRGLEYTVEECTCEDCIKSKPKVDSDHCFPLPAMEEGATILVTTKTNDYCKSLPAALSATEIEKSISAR
Procedure: (§2) LMB70 was labeled with AF647 for measurement of uptake in vivo. LMB70 was labeled twice with AF647 using an AF647 labeling kit (Life Technologies). Labeling efficacy and activity were measured by WST-8 assay and affinity measurement.

[3] = biological target: T4, BCMA molecules on the surface of H929 cells (Homo sapiens, UniProt Q02223); assay: Quantification of BCMA molecules on cell surface by flow cytometry with labeled LMB70; format: binding; conditions: 1h on ice
T4 construct: endogenous in cells; host or cells: H929 cells
T4 sequence (Q02223 1-184): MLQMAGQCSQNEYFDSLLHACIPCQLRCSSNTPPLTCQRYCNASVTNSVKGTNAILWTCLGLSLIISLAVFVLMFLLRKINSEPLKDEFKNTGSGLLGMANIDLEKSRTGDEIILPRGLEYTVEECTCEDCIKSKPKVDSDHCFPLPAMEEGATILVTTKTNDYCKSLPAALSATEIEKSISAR
Procedure: To quantify the BCMA molecules on the surface of H929 cells, H929 cells were incubated with various concentrations of labeled LMB70 for 1h on ice in FLOW buffer. The cells were washed and analyzed by flow cytometry, together with AF647 quantification beads.

H929 cells = assay: WST-8 assay of AF647-labeled and unlabeled LMB70; format: cell-based; conditions: for IC50 (WST-8): in ng/mL
Procedure: as §2

C[C@@H]1C[C@@H]([C@H](O)CC2CC(=O)NC(=O)C2)C(=O)[C@@H](C)C1 [Chxm, Cyclohexamide]
Percent dead (H929 cell line; D-0): 9%
Percent dead (H929 cell line; D-1): 70%
Percent dead (H929 cell line; D-2): 92%
Percent dead (H929 cell line; D-3): 100%
Percent dead (H929 cell line; D-6): 100%
Percent dead (RPMI cell line; washed after D-3, D-0): 15%
Percent dead (RPMI cell line; washed after D-3, D-1): 75%
Percent dead (RPMI cell line; washed after D-3, D-2): 100%
Percent dead (RPMI cell line; washed after D-3, D-3): 100%
Percent dead (RPMI cell line; washed after D-3, D-6): 100%
Percent dead (U266 cell line; D-0): 7%
Percent dead (U266 cell line; D-1): 25%
Percent dead (U266 cell line; D-2): 50%
Percent dead (U266 cell line; D-3): 80%
Percent dead (U266 cell line; D-6): 100%

B1: BM306: anti-BCMA mAb, IgG1 isotype; VH SEQ ID NO: 15, VL SEQ ID NO: 16 (antibody, V domains shown)
VH: MEVQLQQSGPELVKPGASVKISCKTSGYTFTEYTINWVKQSHGKSLEWIGDIYPDNYNIRYNQKFKGKATLTVDKSSSTAYMELRSLSSEDSAIYYCANHDFFVFWGQGTLVTVSAAK
VL: MDIQMTQATSSLSASLGDRVTINCRTSQDISNHLNWYQQKPDGTVKLLIYYTSRLQSGVPSRFSGSGSGTDYSLTISNLEQEDIGTYFCHQGNTLPPTFGGGTKLEIKR
modifications: IgG1
association rate constant (Ka) compared to BM24 (BCMA-rFc protein): high
ka (BCMA-rFc protein): 415000 M⁻¹ s⁻¹
kd (BCMA-rFc protein): <1e-07 s⁻¹
binding to BCMA antigen on the cell surface [1]: high affinity and specificity
cross-reactivity with other TNFR superfamily members [2]: specific to BCMA

B2: labeled LMB70: LMB70 labeled with AF647 using an AF647 labeling kit (conjugate)
VH: EVQLQQSGPELVKPGASVKISCKTSGYTFTEYTINWVKQSHGKSLEWIGDIYPDNYNIRYNQKFKGKATLTVDKSSSTAYMELRSLSSEDSAIYYCANHDFFVFWGQGTLVTVSA
VL: DIQMTQATSSLSASLGDRVTINCRTSQDISNHLNWYQQKPDGTVKLLIYYTSRLQSGVPSRFSGSGSGTDYSLTISNLEQEDIGTYFCHQGNTLPPTFGGGTKLEIK
modifications: left off: another chain or arm of the molecule; a dimerising Fc or GST; small tags and cut ends
notes: LMB70 labeled with AF647 using an AF647 labeling kit
Bmax (affinity measurement) (BCMA): 1131
Bmax ([3]; first labeling): 150,000 molecules per cell
Bmax ([3]; second labeling): 230,000 molecules per cell
IC50 (WST-8) (H929 cells; after the first labeling): 6.082
IC50 (WST-8) (H929 cells; after the second labeling): 10.69
fold less active than the unlabeled toxins (H929 cells; labeled versus unlabeled): about 4 fold

B3: BM24: anti-BCMA mAb, IgG1 isotype; VH SEQ ID NO: 13, VL SEQ ID NO: 14 (antibody, V domains shown)
VH: MEVQLQQSGPELVKPGASVKMSCKASGNTLTNYVIHWMKQMPGQGLDWIGYILPYNDLTKYNEKFTGKATLTSDKSSSSAYMELNSLTSEDSAVYYCTRWDWDGFFDPWGQGTTLTVSSAS
VL: MDIVMTQSPLSLPVSLGDQASISCRSTQSLVHSNGNTHLHWYLQRPGQSPKLLIYSVSNRFSEVPDRFSASGSGTDFTLKISRVEAEDLGVYFCSQTSHIPYTFGGGTKLEIKR
modifications: IgG1
ka (BCMA-rFc protein): 297000 M⁻¹ s⁻¹
kd (BCMA-rFc protein): <1e-07 s⁻¹
binding to BCMA antigen on the cell surface [1]: high affinity and specificity
cross-reactivity with other TNFR superfamily members [2]: specific to BCMA

— US10925969B2, “Anti-BCMA polypeptides and proteins” (priority 2015, dated 2021)
